Assay results from patent publication US5942511A, “Allylthiopyridazine derivatives and process for preparing the same” (Kwon; Soon Kyoung, priority 1998, dated 1999).

Tests used:
Type in all cases: in vivo, male ICR mice
[1] = system: serum ALT (alanine aminotransferase); test: Effect of inhibiting hepatic disorder induced by carbon tetrachloride: serum ALT; settings: CCl4 100 μl/kg i.p., compound 50 mg/kg per day oral, 3 days
Source text: First, the effects of allylthiopyridazine derivative of formula (I) for prevention and treatment of hepatic diseases was examined using carbon tetrachloride model and acetaminophen model.
Carbon tetrachloride model [see, Philippe letteron et al., Biochemical Pharmacology, 39, 12, 2027-2034, 1990] is most frequently used as an experimental model of hepatic disorder and has been established on the basis of the fact that carbon tetrachloride is converted into trichloromethyl free radical (CCl3 .), a highly toxic metabolite, by the action of cytochrome P-450 in body. This metabolite strongly binds with thiol group of liver microsomal membrane protein to produce a lipid radical, which is then converted into peroxy radical in the presence of oxygen, thereby stimulating the peroxidation reaction of membrane lipid. That is, carbon tetrachloride inhibits protein biosynthesis in liver, increases blood ALT (alanine aminotransferase) and causes centrilobular necrosis of liver cells.
(§1) In the present invention, the inhibiting effect of the compound of formula (I) on hepatic disorder, induced by carbon tetrachloride and acetaminophene, was determined after oral administration of the novel compound according to the present invention to mouse as the experimental animal for 3 days. The degree of liver damage in respective experimental animal was determined by measuring ALT and LDH levels in blood [see, Biol. Pharm. Bull., 20, 4, 381-385, 1997; Toxicology and Applied Pharmacology, 95, 1-11, 1988], and further by removing the liver, staining (×100) the liver with hematoxylin and eosin and then observing with microscope to examine the degree of hepatocyte necrosis.
Effect of inhibiting hepatic disorder induced by carbon tetrachloride
The liver protective effect of the compound according to the present invention was examined according to the known method [see, Philippe letteron et al., Biochemical Pharmacology, 39, 12, 2027-2034, 1990] as specifically described below.
The compound according to the present invention was suspended in corn oil and the resulting suspension was administered in an amount of 1.0 ml/kg. Each group was composed of 3 to 10 male ICR mice (5-6 weeks) and the test compound was orally administered for 3 days in the dose of 50 mg/kg per day. After the test compound was administered, carbon tetrachloride was intraperitoneally injected in an amount of 100 μl/kg. In this experiment, silymarin was used as the comparative compound. After 24 hours from administration of carbon tetrachloride, blood was taken from the test animal by cardiac perforation and ALT value in serum was determined. The result obtained is described in the following Table 2 (in which ALT value is represented by mean±SE). The ALT unit in serum was determined by centrifuging blood to separate serum as the supernatant, and then the separated serum were subjected to Reitman-Frankel method by means of a commercially available kit (BC101-O,P, Youngdong Pharm.). That is, DL-alanine and α-ketoglutarate were used as the substrate solution to which 2,4-dinitrophenylhydrazine was added to produce hydrazone. Then, sodium hydroxide was added to hydrazone to colorize and then the absorbance was measured at 505 nm.

[2] = system: serum ALT (alanine aminotransferase); test: Effect of inhibiting hepatic disorder induced by acetaminophen (APAP): serum ALT; settings: APAP 0.5 g/kg oral, compound 50 mg/kg per day oral, 3 days
Source text: (§2) In addition, the liver protective effects of the compound of the present invention can also be confirmed by acetaminophen model [see, Wang et al., Toxicology and applied Pharmacology, 136, 146-154, 1996]. Acetaminophen is rapidly metabolized by CYP2E1 to cause hepatic toxicity, which results in structural and functional change in liver cellular membrane, causing necrosis in hepatic lobule, an increase in blood ALT and LDH (lactate dehydrogenase) levels.
as §1
(§3) Effect of inhibiting hepatic disorder induced by acetaminophen (APAP)
(§4) The liver protective effect of the compound according to the present invention was examined according to the known method [see, Wang et al., Toxicology and applied Pharmacology, 136, 146-154, 1996] as specifically described below.
(§5) The compound according to the present invention was suspended in corn oil and the resulting suspension was administered in an amount of 1.0 ml/kg. Each group was composed of 3 to 10 male ICR mice (5-6 weeks) and the test compound was orally administered for 3 days in the dose of 50 mg/kg per day. After 2 hours from the last administration of the test compound, acetaminophen was orally administered in an amount of 0.5 g/kg. In this experiment, silymarin was used as the comparative compound. After 22 hours from the administration of acetaminphen, blood was taken from the individual test animal and ALT and LDH values in serum were determined. The results as obtained are described in the following Tables 4 and 5 (in which ALT and LDH values are represented by mean±SE). In addition, liver was removed from the test animals and then observed according to the same manner as Experiment 3 to evaluate the degree of hepatocyte necrosis.

[3] = system: serum LDH (lactate dehydrogenase); test: Effect of inhibiting hepatic disorder induced by acetaminophen (APAP): serum LDH; settings: APAP 0.5 g/kg oral, compound 50 mg/kg per day oral, 3 days
Source text: as §2, §1, §3, §4, §5

[4] = system: hepatocyte necrosis; test: Effect of inhibiting hepatic disorder induced by acetaminophen (APAP): hepatocyte necrosis; settings: APAP model, 50 mg/kg per day oral, 3 days
Method: as §1
In addition, liver was removed from the test animals, stained (×100) with hematoxylin and eosin and then observed by microscope. The degree of hepatocyte necrosis was evaluated according to the following 5 grades: 0 no lesion, 1 mild lesion, 2 moderate lesion, 3 severe lesion and 4 diffused lesion.
as §4, §5

**Q.** With C=CCSc1ccc(OC)nn1 [Example 4, 3-methoxy-6-allylthiopyridazine] as the compound, how does the “Inhibiting rate (serum ALT)” value [1] read?
**A.** 57%

**Q.** And the “Serum ALT value” ([1]; mean±SE)?
**A.** 3966 ± 1116 KA unit/l

**Q.** What about the “Inhibiting rate (serum ALT)” value [2] of the same compound?
**A.** 97%

**Q.** What about the “Serum ALT value” ([2]; mean±SE) of the same compound?
**A.** 186 ± 118 KA unit/l

**Q.** And the “Inhibiting rate (serum LDH)” value [3]?
**A.** 99.8%

**Q.** What about the “Serum LDH value” ([3]; mean±SE) of the same compound?
**A.** 703 ± 83 KA unit/l

**Q.** What about the “Degree of necrosis 0: number of animals” value ([4]; grade 0 no lesion) of the same compound?
**A.** 5

**Q.** What about the “Degree of necrosis 1: number of animals” value ([4]; grade 1 mild lesion) of the same compound?
**A.** 4

**Q.** And the “Degree of necrosis 2: number of animals” value ([4]; grade 2 moderate lesion)?
**A.** 1

**Q.** And the “Degree of necrosis 3: number of animals” value ([4]; grade 3 severe lesion)?
**A.** 0

**Q.** What about the “Degree of necrosis 4: number of animals” value ([4]; grade 4 diffused lesion) of the same compound?
**A.** 0
